Measured values as given in patent publication US20130156795A1, “METHODS FOR INHIBITION OF CELL PROLIFERATION, SYNERGISTIC TRANSCRIPTION MODULES AND USES THEREOF” (priority 2009, published 2013).
Entries after “also recorded” stand apart in the source; their conditions may differ. Where two headings read alike, the source gives them in different places.

Assays:
[1] = system: GBM-BTICs and SNB19; assay: qRT-PCR of C/EBPβ and Stat3 mRNA after lentivirus-mediated shRNA silencing; type: cell-based, human
Description: For loss-of-function experiments, lentivirus-mediated shRNA silencing of C/EBPβ and Stat3 in the human glioma cell line SNB19 and in early-passage cultures of tumor cells derived from primary GBM was performed. The latter were grown in serum-free conditions, in the presence of the growth factors bFGF and EGF. These culture conditions preserve the tumor stem cell-like features of GBM-derived cells and propel the formation of GBM-like tumors after intracranial transplantation in immunodeficient mice {Lee, 2006; herein incorporated by reference in its entirety} (GBM-derived brain tumor initiating cells, GBM-BTICs, see FIG. 22 for the analysis of their tumor-initiating capacity). At least three replicates for each condition were produced and a global dataset of 89 individual samples was generated, including 55 knockdown experiments in human glioma cells and 34 ectopic expression experiments in mouse NSCs. Gene expression profiles of human samples were produced with the HT-12v3 Illumina BeadArrays (including 24,385 human genes), while murine samples were profiled on mouse-6V2 Illumina BeadArrays (including 20,311 mouse genes). 14,857 murine genes were mapped to human orthologs, using the homologene database (http://www.ncbi.nlm.nih.gov/homologene; herein incorporated by reference in its entirety). Of the 149 genes in the MGES, 118 could be mapped to murine genes represented on the mouse-6V2 array.
Reciprocal changes followed ectopic expression of the two TFs in C17.2 and NSC cells (Table 10) qRT-PCR values and microarray-based measurements were highly correlated for Stat3 but not for C/EBPβ mRNA (FIG. 24). Moreover, the Stat3C and C/EBPβ constructs used in the ectopic expression experiments in mouse NSCs lack the 3′ UTR sequence targeted by the Illumina probes. Thus, the qRT-PCR values for C/EBPβ and Stat3 were used, rather than the microarray measurements, as more accurate read-outs for their mRNA expression across the 89 samples.
RNA was prepared with RiboPure kit (Ambion), and used for first strand cDNA synthesis using random primers and SuperScriptll Reverse Transcriptase (Invitrogen). QRT-PCR was performed using Power SYBR Green PCR Master Mix (Applied Biosystems). QRT-PCR results were analyzed by the ΔΔCT method (Livak & Schmittgen, Methods 25:402, 2001; herein incorporated by reference in its entirety) using GAPDH or 18S as housekeeping genes.
Lentiviral expression vectors carrying shRNAs were purchased from Sigma. To generate lentiviral particles, each shRNA expression plasmid was co-transfected with pCMV-dR8.91 and pCMV-MD2.G vectors into human embryonic kidney 293T cells using Fugene 6 (Roche). Lentiviral infections were performed as described {Zhao, 2008; herein incorporated by reference in its entirety}.

[2] = system: SNB19 glioma cells; assay: Intracranial xenograft of shRNA-transduced SNB19 glioma cells in immunocompromised mice; type: in vivo, mouse; details: SNB19 xenografted into striatum, 120 days from injection
Description: Next, it was considred whether loss of C/EBPβ and Stat3 in glioma cells reduced tumor aggressiveness in vitro and in vivo. […] Then, the impact of C/EBPβ and Stat3 knockdown for brain tumorigenesis in vivo was determined. SNB19 cells transduced with non-targeting control shRNA lentivirus or shRNA targeting C/EBPβ and/or Stat3 were xenografted into the striatum of immunocompromised mice. […] However, only one of four mice from the shC/EBPβ and one of five mice from the shC/EBPβ+shStat3 groups developed tumors after 120 days from the injection (FIG. 22B). […] Conversely, the single tumor in the shC/EBPβ+shStat3 group grew well circumscribed and was less angiogenic.
Intracranial injection of SNB19 glioma cell line and GBM-derived BTICs was performed in 6-8 weeks NOD/SCID mice (Charles River laboratories) in accordance with guidelines of the International Agency for Reserch on Cancer's Animal Care and Use Committee. Briefly, 48 h after lentiviral infection, 2×10^5 SNB19 or 3×10^5 BTICs were injected 2 mm lateral and 0.5 mm anterior to the bregma, 3 mm below the skull. Mice were monitored daily and sacrificed when neurological symptoms appeared. Kaplan-Meier survival curve of the mice injected with SNB19 glioma cells was generated using the DNA Statview software package (AbacusConcepts, Berkeley Calif.).

[3] = system: SNB19 human glioma cell line; assay: Gene expression profiling and GSEA after shRNA silencing of MR-TFs in SNB19; type: cell-based; details: shRNA knock-down in human glioma cells; for Enrichment of ATF2 regulon on TF-knock-down gene expression profile by GSEA, nES: Control TF regulon ATF2 (negative control), size 386; for Enrichment of SOX15 regulon on TF-knock-down gene expression profile by GSEA, nES: Control TF regulon SOX15 (negative control), size 213; for Enrichment of ZNF277 regulon on TF-knock-down gene expression profile by GSEA, nES: Control TF regulon ZNF277 (negative control), size 238; for Enrichment of ZNF500 regulon on TF-knock-down gene expression profile by GSEA, nES: Control TF regulon ZNF500 (negative control), size 469; for Enrichment of the MGES on genes downregulated after MR-TF knock-down, nES: MGES Enrich.; for Enrichment of C/EBPβ regulon on TF-knock-down gene expression profile by GSEA, nES: Module TF regulon C/EBPβ, size 209; for Enrichment of FosL2 regulon on TF-knock-down gene expression profile by GSEA, nES: Module TF regulon FosL2, size 403; for Enrichment of Runx1 regulon on TF-knock-down gene expression profile by GSEA, nES: Module TF regulon Runx1, size 490; for Enrichment of Stat3 regulon on TF-knock-down gene expression profile by GSEA, nES: Module TF regulon Stat3, size 366; for Enrichment of bHLH-B2 regulon on TF-knock-down gene expression profile by GSEA, nES: Module TF regulon bHLH-B2, size 226
Description: To test whether specific gene signatures were globally differentially regulated, we used the Gene Set Enrichment analysis method (A31; herein incorporated by reference in its entirety). In this method, the Kolmogorov-Smirnoff test is used to determine whether two gene lists are statistically correlated. In this case, one list includes genes on the microarray expression profile dataset, ranked by their differential expression statistics across two conditions (e.g. ectopically expressed Stat3C/C/EBPβ vs. control), from most over- to most underexpressed. The other list contains non-ranked genes in a specific signature (e.g. mesenchymal). This is very useful to detect, for instance, situations where signature genes can be differentially expressed as a whole, even though the fold-change can be small for each gene in isolation. In this case, a gene-by-gene test, such as a T-test, cannot reveal statistical significance. The algorithm was set to implement weighted scoring scheme and the enrichment score significance was assessed by 1000 permutation tests.
Next, lentivirus-mediated shRNA silencing of the five TFs (C/EBPβ, Stat3, bHLH-B2, FosL2, and Runx1) was performed in the SNB19 human glioma cell line, followed by gene expression profiling using HT-12v3 Illumina BeadArrays in triplicate.
RNA amplification for Array analysis was performed with Illumina TotalPrep RNA Amplification Kit (Ambion). 1.5 μg of amplified RNA was hybridized on Illumina HumanHT-12v3 or MouseWG-6 expression BeadChip according to the manufacturer's instructions. Hybridization data was obtained with an iScan BeadArray scanner (Illumina) and pre-processed by variance stabilization and robust spline normalization implemented in the lumi package under the R-system (Du, P., Kibbe, W. A. and Lin, S. M., (2008) ‘lumi: a pipeline for processing Illumina microarray’, Bioinformatics 24(13):1547-1548; herein incorporated by reference in its entirety).

[4] = system: C/EBPbeta-luciferase reporter; assay: C/EBPbeta-luciferase reporter screen in SNB19 glioma cells; type: cell-based, human
Description: SNB19 human glioma cells were stably transfected with the C/EBPbeta-driven luciferase plasmid (FIG. 36). Several clones were isolated and propagated. […] Cells were transfected with control siRNAs or siRNA oligonucleotides targeting C/EBPbeta (for example, SEQ ID NO: 228 or SEQ ID NO: 229). The control siRNA sequence is the Dharmacon ON-TARGETpIus Non-targeting Pool (Cat#: D-001810-10-20). Luciferase activity was measured on a luminometer and the results are shown after normalization with renilla.
A multimerized C/EBPbeta-luciferase reporter was stably introduced in SNB19 and a screening of ˜9,800 compounds was done to identify positive candidates.

[5] = system: phospho-STAT3; assay: Inhibition of active STAT3 (phospho-STAT3); type: cell-based, human
[6] = system: T98G glioma cell line; assay: ZNF238 and ZNF238-target mRNA expression by quantitative PCR in T98G cells; type: cell-based, human
Description: FIG. 12A, Graphical representation of the promoter of ZNF238. The region between −1800 and −3400 contains stretches of CpG islands. FIG. 12B, 5-Azacytidine induces expression of ZNF238. T98G cells were treated with 5-Azacytidine at the indicated concentrations for 3 days. Expression of ZNF238 was analyzed by quantitative PCR. […] HPRT was used as control for normalization.
Computational and expression predictions converged towards the identification of a highly vulnerable structure of the regulatory region controlling ZNF238 expression. The ZNF238 promoter/enhancer is unusually rich in evolutionarily conserved CpG islands (FIG. 12A), which are targeted by DNA methyltransferases leading to gene expression silencing. Methylation of regulatory DNA regions is a common mechanism in human cancer and is implicated in the constitutive silencing of tumor suppressor genes in malignant glioma (109; herein incorporated by reference in its entirety). Thus, whether promoter methylation induces silencing of ZNF238 was considered. Pharmacological inhibition of methylation with an inhibitor of DNA methyltransferases (5-Azacytidine) elevated the expression of ZNF238 mRNA in the T98G glioma cell line (FIG. 12B) and repressed the expression of SerpineH1 and CH3IRL1 (FIG. 12C), two mesenchymal genes predicted as ZNF238 targets by ARACNe (FIG. 1).

Compound: shC/EBPβ: lentiviral shRNA specific for C/EBPβ purchased from Sigma (TRCN0000007442, SEQ ID NO: 225) (CCGGCGACTTCCTCTCCGACCTCTTCTCGAGAAGAGGTCGGAGAGGAAGTCGTTTTT)
- C/EBPβ mRNA level relative to non-target shRNA transduced cells (fold ratio, median ± MAD) [1]: 0.26 ± 0.119
- Stat3 mRNA level relative to non-target shRNA transduced cells (fold ratio, median ± MAD) [1]: 1.13 ± 0.43
- C/EBPβ mRNA level relative to non-target shRNA transduced cells (fold ratio, median ± MAD) ([1]; listed as C/EBPβ shRNA): 0.26
- mice that developed tumors [2]: one of four
- Enrichment of ATF2 regulon on TF-knock-down gene expression profile by GSEA, nES [3]: 1.54
- Enrichment of SOX15 regulon on TF-knock-down gene expression profile by GSEA, nES [3]: 0.28
- Enrichment of ZNF277 regulon on TF-knock-down gene expression profile by GSEA, nES [3]: −0.79
- Enrichment of ZNF500 regulon on TF-knock-down gene expression profile by GSEA, nES [3]: −0.24
- Enrichment of the MGES on genes downregulated after MR-TF knock-down, nES [3]: 3.23
- Enrichment of C/EBPβ regulon on TF-knock-down gene expression profile by GSEA, nES [3]: 1.91
- Enrichment of FosL2 regulon on TF-knock-down gene expression profile by GSEA, nES [3]: 3.83
- Enrichment of Runx1 regulon on TF-knock-down gene expression profile by GSEA, nES [3]: 0.55
- Enrichment of Stat3 regulon on TF-knock-down gene expression profile by GSEA, nES [3]: 2.49
- Enrichment of bHLH-B2 regulon on TF-knock-down gene expression profile by GSEA, nES [3]: 1.74

Compound: COc1cc([C@@H]2c3cc4c(cc3[C@@H](O[C@@H]3O[C@@H]5CO[C@@H](C)O[C@H]5[C@H](O)[C@H]3O)[C@H]3COC(=O)[C@H]23)OCO4)cc(OC)c1O [etoposide]
- inhibition of CCAAT/enhancer-binding protein (CEBP) luciferase reporter ([4]; pilot screen, microsource library (2000 compounds), SNB19): inhibit
- inhibition of the active form of STAT3 (phospho-STAT3) [5]: inhibit

Compound: Nc1ncn([C@@H]2O[C@H](CO)[C@@H](O)[C@H]2O)c(=O)n1 [5-Azacytidine]
- expression of CH3IRL1 [6]: repressed
- expression of SerpineH1 [6]: repressed
- expression of ZNF238 mRNA ([6]; 3 days, quantitative PCR): induces; also recorded: elevated
- Expression of selected ZNF238 targets ([6]; HPRT normalization (FIG. 12C)): down-regulated

Compound: shStat3: lentiviral shRNA specific for Stat3 purchased from Sigma (TRCN0000020843, SEQ ID NO: 224) (CCGGGCAAAGAATCACATGCCACTTCTCGAGAAGTGGCATGTGATTCTTTGCTTTTT)
- C/EBPβ mRNA level relative to non-target shRNA transduced cells (fold ratio, median ± MAD) [1]: 0.87 ± 0.111
- Stat3 mRNA level relative to non-target shRNA transduced cells (fold ratio, median ± MAD) [1]: 0.205 ± 0.052
- Stat3 mRNA level relative to non-target shRNA transduced cells (fold ratio, median ± MAD) ([1]; listed as Stat3-shRNA): 0.205
- mice that developed tumors [2]: all mice
- Enrichment of ATF2 regulon on TF-knock-down gene expression profile by GSEA, nES [3]: −0.24
- Enrichment of SOX15 regulon on TF-knock-down gene expression profile by GSEA, nES [3]: −2.81
- Enrichment of ZNF277 regulon on TF-knock-down gene expression profile by GSEA, nES [3]: −0.55
- Enrichment of ZNF500 regulon on TF-knock-down gene expression profile by GSEA, nES [3]: 0.20
- Enrichment of the MGES on genes downregulated after MR-TF knock-down, nES [3]: 3.59
- Enrichment of C/EBPβ regulon on TF-knock-down gene expression profile by GSEA, nES [3]: 2.43
- Enrichment of FosL2 regulon on TF-knock-down gene expression profile by GSEA, nES [3]: 4.98
- Enrichment of Runx1 regulon on TF-knock-down gene expression profile by GSEA, nES [3]: 2.41
- Enrichment of Stat3 regulon on TF-knock-down gene expression profile by GSEA, nES [3]: 1.78
- Enrichment of bHLH-B2 regulon on TF-knock-down gene expression profile by GSEA, nES [3]: 0.59

Compound: O=c1[nH]cc(F)c(=O)[nH]1 [5-fluorouracil]
- inhibition of C/EBPb activity, C/EBPb gene reporter assay ([4]; reporter activity at 48 hr, various dosages (FIG. 38A, 39A)): inhibition
